Data on 28 compounds can be found in the RepoRT retention time repository.

A short description of the data set: Waters ACQUITY UPLC BEH C18, 100 × 2.1 mm, 1.7 µm, 40 °C, 0.3 to 0.4 mL/min, estimated dead time 0.63 min; A: water + 0.1% formic acid; B: methanol + 0.1% formic acid; gradient (min/%B) 0/0.5 0.1/0.5 10/80 10.1/99.5 12/99.5. As to conditions: stereoisomer not certain.
In the case of `CC(C)=CCc1cc(C2CC(=O)c3c(O)cc(O)cc3O2)ccc1O` (stereo not drawn), the LC retention time was 8.11 min.
As for `NC(=O)CCC(NC(=O)CCCc1ccccc1)C(=O)O` (stereo not drawn), the LC retention time was 2.88 min.
In the case of `O=C1c2c(O)cc(O)cc2OC(c2ccc(O)cc2)C1O` (stereo not drawn) it was 4.8 min; in that of `CC(C)=CCc1cc(-c2coc3cc(O)c(CC=C(C)C)c(O)c3c2=O)cc(O)c1O`, 8.06 min; in that of `COc1ccc2cc1Oc1ccc(cc1)CC1c3cc(c(OC)cc3CCN1C)Oc1c(OC)c(OC)c(OC)c3c1C(C2)N(C)CC3` (stereo not drawn), 4.41 min.
As to `CC(C)=CCc1c(O)cc2c(c1O)C(=O)CC(c1ccccc1)O2` (stereo not drawn), the LC retention time is 7.58 min.
In the case of `COc1cc(C(O)C(CO)Oc2c(OC)cc(-c3cc(=O)c4c(O)cc(O)cc4o3)cc2OC)ccc1O` (stereo not drawn) it was 6.2 min.
The figure for `CCCCCC=CCC(O)C(O)CCCCCCCC(=O)O` (stereo not drawn) is 8.54 min.
The figure for `C=C1CCCC2(C)CC3(O)OC(=O)C(C)=C3CC12` (stereo not drawn) is 7.91 min; for `CC(=O)OC1C(C(=O)O)OC(OC2C(O)C(O)OC(CO)C2O)C(O)C1OC1OC(CO)C(O)C(O)C1O` (stereo not drawn) it is 5.48 min; for `CC1OC(OCC2OC(Oc3cc(O)c4c(c3)OC(c3ccc(O)c(O)c3)CC4=O)C(O)C(O)C2O)C(O)C(O)C1O` (stereo not drawn) it is 3.92 min.
For `O=C1CC(c2ccc(O)cc2)Oc2cc(OC3OC(CO)C(O)C(O)C3O)cc(O)c21` (stereo not drawn), the LC retention time is 4.52 min.
As for `COc1cc(O)c(CC=C(C)C)c(O)c1C(=O)C=Cc1ccc(O)cc1`, the LC retention time is 9.06 min.
In the case of `CC(C)=CCc1c(O)cc(O)c2c1OC(c1ccc(O)cc1)CC2=O` (stereo not drawn) it was 8.76 min; in that of `COc1ccc(C=CC(=O)c2c(O)cc(OC3OC(CO)C(O)C(O)C3OC3OC(C)C(O)C(O)C3O)cc2O)cc1` (stereo not drawn), 5.42 min.
Take `CC(C)=CCc1cc(C2CC(=O)c3c(O)cc(O)cc3O2)cc(O)c1O` (stereo not drawn): the LC retention time was 7.75 min.
The figure for `C=CC12CN(C)C3CC14C(=Nc1ccccc14)C1CC2C3CO1` (stereo not drawn) is 3.58 min; for `COc1ccc(C2CC(=O)c3c(O)cc(OC4OC(COC5OC(C)C(O)C(O)C5O)C(O)C(O)C4O)cc3O2)cc1` (stereo not drawn) it is 5.33 min.
The figure for `COc1ccc2c(c1)[nH]c1c(C)nccc12` is 4.11 min; for `O=c1c(O)c(-c2ccc(O)c(O)c2)oc2cc(OC3OC(CO)C(O)C(O)C3O)c(O)c(O)c12` (stereo not drawn) it is 3.72 min; for `CC1OC(OC2C(OC3C(OC4CCC5(C)C(CCC6(C)C5CC=C5C7CC(C)(C)CC(=O)C7(C)CCC56C)C4(C)CO)OC(C(=O)O)C(O)C3O)OCC(O)C2O)C(O)C(O)C1O` (stereo not drawn) it is 7.85 min.
Turning to `O=c1cc(-c2ccc(O)c(O)c2)oc2c(C3OC(CO)C(O)C(O)C3O)c(O)cc(O)c12` (stereo not drawn), the LC retention time was 3.7 min.
On to `CCC1C2CCN3CCC4(C(=C2C(=O)OC)Nc2ccccc24)C13` (stereo not drawn), for which the LC retention time is 4.92 min.
The figure for `COc1cc(C=CC(=O)OC2C(OC3COC(c4c(O)cc5oc(-c6ccc(O)cc6)cc(=O)c5c4O)C(O)C3O)OC(CO)C(O)C2O)ccc1O` (stereo not drawn) is 4.71 min; for `CC1OC(OC2C(OC3C(OC4CCC5(C)C(CCC6(C)C5CC=C5C7CC(C)(C)CC(O)C7(C)CCC56C)C4(C)CO)OC(C(=O)O)C(O)C3O)OC(CO)C(O)C2O)C(O)C(O)C1O` (stereo not drawn) it is 7.09 min.
In the case of `CCCCCC(=O)OC1C(OC2(CO)OC(CO)C(OC(C)=O)C2O)OC(CO)C(OC(=O)CCCC)C1OC(=O)CCCCC` (stereo not drawn) it was 9.49 min.
Regarding `O=C(C=Cc1ccc(O)cc1)OCC1OC(OC2C(c3c(O)cc4oc(-c5ccc(O)c(O)c5)cc(=O)c4c3O)OC(CO)C(O)C2O)C(O)C(O)C1O` (stereo not drawn), the LC retention time was 3.81 min.
In the case of `C=CC1C(OC2OC(CO)C(O)C(O)C2O)OC=C2C(=O)N3Cc4c([nH]c5ccccc5c4=O)C3CC21` (stereo not drawn) it was 4.07 min.
